Biological target: T1, 3-oxo-5-alpha-steroid 4-dehydrogenase 2 (Homo sapiens, UniProt P31213)
T1 sequence (P31213 whole entry): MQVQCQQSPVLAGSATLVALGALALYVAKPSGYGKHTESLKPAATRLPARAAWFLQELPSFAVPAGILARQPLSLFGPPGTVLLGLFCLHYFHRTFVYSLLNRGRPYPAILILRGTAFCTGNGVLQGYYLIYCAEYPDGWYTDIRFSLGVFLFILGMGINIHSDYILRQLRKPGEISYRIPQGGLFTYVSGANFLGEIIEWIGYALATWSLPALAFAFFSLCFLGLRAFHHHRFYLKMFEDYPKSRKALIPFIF
Assay: 5α-R2 Activity Assay
Method: The activity of the isozyme 5α-R type 2 was assayed as previously described [Hirosumi et al., J. Steroid Biochem. Mol. Biol., 52:357-363; Bratoeff et al., J. Steroid Biochem. Mol. Biol., 107:48-56].

SMILES	IC50 [nM]
C[C@]12CC[C@H](OC(=O)c3ccccc3)CC1=CCC1C2CC[C@]2(C)C(=O)CCC12 (stereo partly drawn) [17-Oxaandrost-5-ene-3β-yl-benzoate (1)]	> 100000
C[C@]12CC[C@H](OC(=O)c3ccc(F)cc3)CC1=CCC1C2CC[C@]2(C)C(=O)CCC12 (stereo partly drawn) [17-Oxaandrost-5-ene-3β-yl-p-fluorobenzoate (2)]	3.58

— BindingDB's records for doi:10.3109/14756366.2012.729827 (National University of Mexico City, 2013)
